Laboratory results reported in patent US7384625B2, “Method and composition for rejuvenating hair, nails, tissues, cells and organs by ex-vivo or immersive treatment” (Farington Pharmaceuticals, LLC, priority 2001, dated 2008).
Entries after “also recorded” stand apart in the source; their conditions may differ.

Key:
[1] = Hair deformability: stress vs strain of bending individual hairs before and after treatment; settings: FIG. 1
Description: Methodology for Determination of Stress vs Strain Relationship (Stiffness) The distensibility (i.e, elasticity, rigidity, shear, tensile strength, compression, etc.) of hair, nails, tendons, etc. may be determined using widely available commercial devices, such as manufactured by Instron. Alternatively, other test methods known to a practitioner of the art may be employed. The test assay for determining whether hair has been “rejuvenated” for the present invention is the following. Individual scalp hairs were cemented into the ends of glass capillary tubes such that several centimeters of the shaft protruded from the end. This hair was then trimmed to extend 18 mm from the end of the tube. The unit was then inserted into a micropipette positioner for study. Evaluation consisted of bending the hair by applying a specified force and displacement. Thus, this determination of stress vs strain of bending assessed elasticity, compressibility, and shear of each hair shaft. Each hair served as its own control, with baseline and post-treatment properties assessed and directly compared. A 1 mm thick plate with a 0.5 mm diameter hole drilled through was attached to the surface of an isometric strain gauge. To perform each measurement, the capillary tube was placed over the fenestrated plate and the hair end inserted into the hole in the plate without touching the strain gauge. The hair was then straightened, if necessary, such that its axis formed a 10 degree angle with respect to vertical. Once positioned, the hair was then lowered onto the surface of the strain gauge. The force required to bend each hair a specified distance was determined over a wide range of displacements. From the stress vs strain relationships thus derived, the work to bend each hair under different treatment regimens can be directly compared. For purposes of the present invention, the term “rejuvenated” hair means an improvement of at least 20% in the measured value of the treated hair, toward the values seen in young, undamaged hair (i.e. healthy). […] The stress versus strain relationship was determined as a baseline. […]

[2] = Tendon rejuvenation: elasticity in a materials testing device before and after ex vivo exposure; parameters: species or system hen; settings: FIG. 2
Protocol: The distensibility (i.e, elasticity, rigidity, shear, tensile strength, compression, etc.) of hair, nails, tendons, etc. may be determined using widely available commercial devices, such as manufactured by Instron. Alternatively, other test methods known to a practitioner of the art may be employed. The elasticity of the Achilles tendon of a one year old hen was determined in a materials testing device before and after ex vivo exposure to 3-(2-phenyl-2-oxoethyl)-4,5-dimethylthiazolium chloride (1 mM) in a bath for 15 minutes.

[3] = Tissue diffusion coefficient rejuvenation of ex vivo donor lungs, tested in the recipient patient after transplantation; settings: ex vivo organ flushed once with cooled preservation solution containing 0.01 to 1.0 mM; testing in recipient patient
Protocol: The following is an illustration of a methodology that can be used to rejuvenate ex vivo and prior to transplantation to a recipient patient the lungs removed from a donor cadaver aged 21 years or more. […] Individuals' deformability and diffusion characteristics can be characterized by using the standard methodology of determination of the lung diffusing capacity for carbon monoxide (e.g., Chang et al., Chest (1992) 102:139-42). The diffusing capacity is measured in the supine patient using a single breath of carbon monoxide (0.3%) held for ten seconds using a CPI 5000 IV (Gould Instruments, Houston, Tex.), corrected for alveolar volume. A young subject (20 years old) will have approximately a 40% higher diffusion coefficient for carbon monoxide compared to older subjects (60 yrs). The ex vivo organ is flushed once with a cooled preservation solution containing 3-(2-phenyl-2-oxoethyl)-4,5-dimethylthiazolium chloride at a concentration of 0.01 to 1.0 mM.

Structure (SMILES): Cc1sc[n+](CC(=O)c2ccccc2)c1C.[Cl-] [3-(2-phenyl-2-oxoethyl)-4,5-dimethylthiazolium chloride]
- distensibility of hair ([1]; 1 mM, 15 minutes, after treatment vs baseline): increased distensibility
- stiffness of hair ([1]; after treatment): decreases the stiffness
- reduction of resulting strain versus before treatment ([1]; hair immersed in 1 mM solution for 15 minutes, stress greater than 0.08): about 50%
- distensibility of tendon ([2]; 1 mM bath for 15 minutes ex vivo, post-treatment): improved; also recorded: significantly increased
- strain of treated tendon as percent of the strain of the untreated tendon ([2]; 1 mM bath for 15 minutes ex vivo, stress greater than 0.04): about 50%
- tensile strength of tendon ([2]; after treatment): improved
- deformability of transplanted lungs [3]: improved
- diffusional capacity of transplanted lungs [3]: improved
